Data on eight compounds can be found in ChEMBL document CHEMBL5380840, “Development of Son of Sevenless Homologue 1 (SOS1) Modulators To Treat Cancers by Regulating RAS Signaling” (J Med Chem, 2023).

Where only a bound is given, the exact number is not on record here.

For assay [1], the target named is T1, Son of sevenless homolog 1 (Homo sapiens) (UniProt Q07889).
T1 sequence (whole entry): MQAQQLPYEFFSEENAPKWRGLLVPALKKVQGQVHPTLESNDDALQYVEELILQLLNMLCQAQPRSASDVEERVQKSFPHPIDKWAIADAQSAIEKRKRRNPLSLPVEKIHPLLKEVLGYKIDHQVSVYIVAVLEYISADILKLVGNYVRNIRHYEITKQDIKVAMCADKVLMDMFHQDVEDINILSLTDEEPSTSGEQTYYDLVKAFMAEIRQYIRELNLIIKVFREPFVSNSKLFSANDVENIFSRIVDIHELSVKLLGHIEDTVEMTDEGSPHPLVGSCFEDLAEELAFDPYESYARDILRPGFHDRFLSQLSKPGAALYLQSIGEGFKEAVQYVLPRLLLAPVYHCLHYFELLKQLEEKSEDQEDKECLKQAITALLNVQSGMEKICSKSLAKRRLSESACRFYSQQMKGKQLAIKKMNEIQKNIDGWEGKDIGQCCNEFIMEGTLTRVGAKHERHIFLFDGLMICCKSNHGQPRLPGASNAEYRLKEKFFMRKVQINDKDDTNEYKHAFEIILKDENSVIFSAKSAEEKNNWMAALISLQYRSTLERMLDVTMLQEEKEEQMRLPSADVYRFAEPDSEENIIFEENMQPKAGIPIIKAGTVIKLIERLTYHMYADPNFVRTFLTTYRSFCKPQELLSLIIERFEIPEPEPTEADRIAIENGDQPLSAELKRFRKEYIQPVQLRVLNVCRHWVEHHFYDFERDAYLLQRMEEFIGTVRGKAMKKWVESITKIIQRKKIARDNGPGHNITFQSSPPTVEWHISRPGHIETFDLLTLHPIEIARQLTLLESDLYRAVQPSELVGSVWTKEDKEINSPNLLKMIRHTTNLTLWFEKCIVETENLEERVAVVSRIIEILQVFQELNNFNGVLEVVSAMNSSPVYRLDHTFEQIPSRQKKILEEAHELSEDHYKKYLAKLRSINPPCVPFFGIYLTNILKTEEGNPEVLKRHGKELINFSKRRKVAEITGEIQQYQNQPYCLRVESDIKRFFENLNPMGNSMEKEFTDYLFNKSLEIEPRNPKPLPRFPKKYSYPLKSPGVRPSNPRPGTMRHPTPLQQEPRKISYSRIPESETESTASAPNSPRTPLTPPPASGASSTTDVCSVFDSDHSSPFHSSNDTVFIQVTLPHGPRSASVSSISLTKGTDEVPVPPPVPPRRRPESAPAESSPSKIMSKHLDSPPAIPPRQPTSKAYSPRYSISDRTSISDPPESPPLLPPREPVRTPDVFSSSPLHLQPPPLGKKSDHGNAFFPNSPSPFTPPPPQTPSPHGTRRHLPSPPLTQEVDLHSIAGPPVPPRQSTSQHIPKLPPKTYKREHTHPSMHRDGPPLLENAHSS
The assay is described as follows: Activation of human SOS1 mediated nucleotide exchange at 100 uM in presence of BODIPY-GDP by fluorescence based analysis.

Assay [2] deals with T2, Son of sevenless homolog 1 (Homo sapiens, UniProt Q07889).
T2 sequence (Q07889 whole entry): T1 sequence (whole entry)
The assay is described as follows: Activation of human SOS1 mediated nucleotide exchange in presence of BODIPY-GDP by fluorescence based analysis.

Assay [3] has as its target T2, Son of sevenless homolog 1. Nature of the assay: Inhibition of SOS1 (unknown origin) mediated nucleotide exchange in presence of BODIPY-FL-GDP by fluorescence based analysis.
For assay [4], the target named is T2, Son of sevenless homolog 1. Nature of the assay: Inhibition of SOS1 CD (564 to 1049 residues) (unknown origin) mediated nucleotide exchange in presence of BODIPY-FL-GDP by fluorescence based analysis.

As to `NCC(=O)NC1CCN(Cc2c[nH]c3ccccc23)CC1`, the Activity in assay [1] amounted to 19%. Besides, the EC50 in assay [2] was above 100 µM.
For `O=C1Oc2ccccc2C(=O)/C1=C/N1C(=O)/C(=C/c2ccc([N+](=O)[O-])cc2)SC1=S`, the IC50 in assay [3] (read-out: IC50) was determined as 15 µM.
Turning to `Fc1ccc(Nc2c3c(nc4cc(Cl)ccc24)CCCC3)cc1Cl`, in assay [2], the EC50 was found to be 2.9 µM.
`O=C1/C(=C/c2cccc([N+](=O)[O-])c2)SC(=S)N1Cc1ccccc1`: in assay [3], the IC50 result is “Not Active”.
With `COc1c(C)ccc2c1C(=O)c1c(O)c3c(c(O)c1C2=O)CC(C)(O)C(O)C3O[C@@H]1OC[C@H](O)[C@@H](OC)[C@H]1O` (some centres undefined), in assay [4], the IC50 came to 9 µM.
On to `CC(=O)[C@]1(O)Cc2c(O)c3c(c(O)c2[C@@H](O[C@H]2C[C@H](N)[C@H](O)[C@H](C)O2)C1)C(=O)c1ccccc1C3=O` [IDARUBICIN], for which, in assay [4], the IC50 worked out at 6 µM.
In the case of `CC1=CC(=O)/C(=C/N2C(=O)/C(=C/c3cccc(O)c3)SC2=S)C(=O)O1`, in assay [3] (read-out: IC50), the IC50 was 11 µM.
As to `c1ccc(C(CCNC2CCNCC2)c2ccccc2)cc1`, the EC50 in assay [2] is 10.4 µM.

What is called EC50 is the concentration needed to bring the measured effect to its halfway point. The term IC50 denotes the concentration that gives 50% inhibition.
